{"source": "patent US20150017092A1", "about": "“DEVICES AND METHODS FOR DETERMINING SENSITIVITY TO RADIATION” (The Regents of the University of California, priority 2012, published 2015)", "key": {"MCF10A": {"test_system": "MCF10A", "experiment": "53BP1 radiation induced foci (RIF) time response in MCF10A exposed to X-rays under ATM inhibition, fitted with Eq. 1", "type": "cell-based, human", "conditions": "for T1/2_1 (RIF induction half-life): 10 μM inhibitor; for α, RIF/Gy (absolute RIF yield): 10 μM inhibitor from 1 h pre-IR, one experiment", "excerpt": "To test the validity of the mathematical model further, we perturbed the rates of RIF formation or RIF removal by inhibiting ataxia telangiectasia mutated (ATM) kinase activity with KU55933 (see Materials and Methods).\nThe cells were fixed for immunofluorescence at specific intervals after exposure to X-rays. We typically refer to “low dose” or “high dose” as doses below or equal to 0.1 Gy or larger than 1 Gy, respectively. For high-LET IR, cells were irradiated at the accelerator beam line of the National Aeronautics and Space Administration Space […] Laboratory at Brookhaven National Laboratory.\nWe are only briefly describing these procedures. For complete information, see Supplemental Information Materials and Methods. Immunostaining using anti-53BP1 (rabbit polyclonal, Bethyl Laboratories A300-272A) was performed according to previous staining protocol (Costes et al. (2006) Radiat. Res. 165: 505-515). For image acquisition, both live and fixed MCF10A were imaged using a Zeiss plan-apochromat 40× dry objective (N.A. of 0.95) at a fixed exposure time. Nondeconvolved 3D stacks were acquired and used for image analysis (10 slices of 0.5-μm steps for fixed cells and 3 slices of 1-μm step for live cells). All image manipulations, foci analysis, and statistics were done with Matlab (MathWorks, Inc.) and DIPimage (image processing toolbox for Matlab, Delft University of Technology). In contrast to previous intensity-based methods for RIF identification (Bocker and Iliakis (2006) Radiat. Res. 165: 113-124), we used a pattern recognition approach to detect RIF by applying a wavelet morphological filter to enhance RIF peaks in the image while reducing noise from nonspecific signals (Olivo-Marin (2002) Pattern Recognition 35: 1989-1996). Nuclear space occupied by RIF was identified by applying a constant threshold on the wavelet filtered image, and watershed algorithm was used to separate touching RIF. To test if focus size could affect the accuracy of automatic RIF detection, we applied the software on simulated data where foci sizes and densities had different values (i.e., 1 to 40 foci/nucleus were simulated with four distinct sizes: 0.1, 0.4, 1.3, and 2.4 μm^3; FIG. 17). […] Finally, in order to extract the number of “real” RIF from the number of background foci in each scored nucleus, we introduced a background subtraction method that assumes the measured RIF distribution is the result of a convolution between the “real” RIF distribution and the background foci distribution (FIG. 18). For quantification of RIF in live cells, we counted both the cumulative and instantaneous number of RIF manually in 3D time-lapse images. Time interval varied between experiments and was generally set to 10-min interval for the first hour, followed by 30-min interval afterwards. This setting was optimum to minimize phototoxicity and specimen bleaching. Because of the difficulty of software to track individual foci in successive time lapse, analysis had to be done manually in a blind manner on processed images.\nIn order to interpret RIF kinetics in an unbiased manner, we introduce a simple mathematical model describing RIF formation where one DSB is detected at a rate k leading to one RIF, and one RIF is resolved after repair at a rate k2, assuming both processes are irreversible. This model can be noted as follows:\nwhere α is the number of naked DSB/Gy before formation of RIF and D is the dose delivered to the cell. Alpha (α) should be constant for all doses. Further details are provided in the supporting information materials and methods regarding the way Eq. 1 is fitted."}, "[1]": {"target": "T1, ataxia telangiectasia mutated (ATM) kinase (Homo sapiens, UniProt Q13315)", "T1 construct": "endogenous in cells; host or cells: MCF10A (human mammary epithelial cells, ATCC)", "T1 sequence (Q13315 whole entry, change not shown)": "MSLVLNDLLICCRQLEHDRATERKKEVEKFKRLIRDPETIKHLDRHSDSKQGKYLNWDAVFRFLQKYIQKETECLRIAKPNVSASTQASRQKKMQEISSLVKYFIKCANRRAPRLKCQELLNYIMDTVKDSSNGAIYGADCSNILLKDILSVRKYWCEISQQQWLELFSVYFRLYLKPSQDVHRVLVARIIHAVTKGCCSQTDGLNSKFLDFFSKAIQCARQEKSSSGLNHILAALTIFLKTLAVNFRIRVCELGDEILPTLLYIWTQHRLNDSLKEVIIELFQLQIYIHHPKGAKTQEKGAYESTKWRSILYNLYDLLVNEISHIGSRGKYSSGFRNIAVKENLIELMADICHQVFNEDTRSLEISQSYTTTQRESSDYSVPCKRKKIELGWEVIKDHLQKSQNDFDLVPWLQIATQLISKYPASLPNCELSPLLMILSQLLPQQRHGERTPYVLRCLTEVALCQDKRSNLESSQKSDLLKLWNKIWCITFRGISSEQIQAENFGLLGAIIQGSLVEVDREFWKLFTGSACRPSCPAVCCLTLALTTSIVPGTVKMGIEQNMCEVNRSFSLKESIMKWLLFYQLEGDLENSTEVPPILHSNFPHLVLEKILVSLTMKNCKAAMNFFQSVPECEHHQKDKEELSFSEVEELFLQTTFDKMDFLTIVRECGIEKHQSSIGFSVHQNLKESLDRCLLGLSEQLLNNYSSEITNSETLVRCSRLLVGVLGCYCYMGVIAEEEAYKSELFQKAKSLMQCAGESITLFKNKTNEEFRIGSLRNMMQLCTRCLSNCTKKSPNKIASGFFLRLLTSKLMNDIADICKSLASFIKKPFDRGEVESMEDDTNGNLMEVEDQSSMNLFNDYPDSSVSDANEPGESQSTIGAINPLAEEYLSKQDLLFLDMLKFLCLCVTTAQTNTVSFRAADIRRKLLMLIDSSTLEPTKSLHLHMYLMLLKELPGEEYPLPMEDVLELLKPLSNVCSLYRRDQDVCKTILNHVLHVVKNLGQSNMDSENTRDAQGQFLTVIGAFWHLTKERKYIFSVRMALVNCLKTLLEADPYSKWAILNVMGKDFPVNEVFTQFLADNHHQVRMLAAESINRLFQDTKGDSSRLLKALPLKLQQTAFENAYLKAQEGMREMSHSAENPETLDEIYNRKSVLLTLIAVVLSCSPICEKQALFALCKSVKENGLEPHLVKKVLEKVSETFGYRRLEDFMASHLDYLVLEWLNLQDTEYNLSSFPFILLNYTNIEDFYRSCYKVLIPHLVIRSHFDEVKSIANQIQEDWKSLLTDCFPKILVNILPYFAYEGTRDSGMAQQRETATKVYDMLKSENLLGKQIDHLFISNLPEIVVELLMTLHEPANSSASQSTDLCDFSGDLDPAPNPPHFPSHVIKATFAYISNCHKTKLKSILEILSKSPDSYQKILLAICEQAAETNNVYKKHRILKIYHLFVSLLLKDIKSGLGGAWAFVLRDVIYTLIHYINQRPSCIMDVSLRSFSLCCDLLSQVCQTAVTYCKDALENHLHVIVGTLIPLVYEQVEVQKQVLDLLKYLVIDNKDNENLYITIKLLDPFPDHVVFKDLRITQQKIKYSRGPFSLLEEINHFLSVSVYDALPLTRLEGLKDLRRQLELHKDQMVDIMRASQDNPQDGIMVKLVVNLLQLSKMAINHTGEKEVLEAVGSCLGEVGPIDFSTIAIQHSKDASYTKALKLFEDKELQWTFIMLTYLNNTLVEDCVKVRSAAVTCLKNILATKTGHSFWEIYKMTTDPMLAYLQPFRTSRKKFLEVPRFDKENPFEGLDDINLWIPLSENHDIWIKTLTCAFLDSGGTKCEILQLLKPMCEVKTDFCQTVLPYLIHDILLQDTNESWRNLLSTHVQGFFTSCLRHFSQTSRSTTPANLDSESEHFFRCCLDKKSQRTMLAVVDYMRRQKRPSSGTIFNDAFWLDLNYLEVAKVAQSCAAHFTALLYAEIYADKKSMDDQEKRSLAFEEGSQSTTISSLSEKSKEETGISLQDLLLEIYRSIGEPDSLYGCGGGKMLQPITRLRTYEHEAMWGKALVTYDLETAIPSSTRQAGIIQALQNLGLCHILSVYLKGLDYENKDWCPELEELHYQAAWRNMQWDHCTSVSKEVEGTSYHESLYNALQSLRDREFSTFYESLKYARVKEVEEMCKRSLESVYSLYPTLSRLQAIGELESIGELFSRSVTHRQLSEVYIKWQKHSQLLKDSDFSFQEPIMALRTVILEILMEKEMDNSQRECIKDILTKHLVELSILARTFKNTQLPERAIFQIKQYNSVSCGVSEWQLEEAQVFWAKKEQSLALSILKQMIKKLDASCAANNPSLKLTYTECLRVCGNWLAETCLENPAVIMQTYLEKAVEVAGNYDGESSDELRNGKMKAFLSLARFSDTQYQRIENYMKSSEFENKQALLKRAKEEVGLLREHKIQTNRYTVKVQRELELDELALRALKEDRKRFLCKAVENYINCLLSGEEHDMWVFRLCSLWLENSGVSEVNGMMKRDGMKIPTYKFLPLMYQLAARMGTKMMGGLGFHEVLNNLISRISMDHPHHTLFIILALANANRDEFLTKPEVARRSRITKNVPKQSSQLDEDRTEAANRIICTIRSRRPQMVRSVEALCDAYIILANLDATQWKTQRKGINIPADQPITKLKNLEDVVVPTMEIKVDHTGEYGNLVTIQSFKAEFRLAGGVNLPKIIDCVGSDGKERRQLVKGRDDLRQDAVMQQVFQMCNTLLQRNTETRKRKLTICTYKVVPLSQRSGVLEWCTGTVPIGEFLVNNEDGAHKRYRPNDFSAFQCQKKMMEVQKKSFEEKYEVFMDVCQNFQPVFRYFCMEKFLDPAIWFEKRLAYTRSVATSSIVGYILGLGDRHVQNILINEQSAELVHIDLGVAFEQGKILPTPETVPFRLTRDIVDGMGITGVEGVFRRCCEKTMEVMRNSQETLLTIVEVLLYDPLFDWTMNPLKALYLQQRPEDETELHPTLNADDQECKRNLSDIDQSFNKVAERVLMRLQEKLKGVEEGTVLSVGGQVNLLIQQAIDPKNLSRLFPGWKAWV", "experiment": "Inhibition of ATM measured by Western blot of P53-S15p", "type": "cell-based", "conditions": "10 μM inhibitor, MCF10A"}}}
{"smiles": "O=c1cc(-c2cccc3c2Sc2ccccc2S3)oc(N2CCOCC2)c1", "note": "[KU55933]", "values": [{"measurement": "T1/2_1 (RIF induction half-life)", "setting": "MCF10A; 0.1 Gy X-rays", "value": 8.3, "unit": "min"}, {"measurement": "α, RIF/Gy (absolute RIF yield)", "setting": "MCF10A; 0.1 Gy X-rays", "value": "25±17", "unit": "RIF/Gy"}, {"measurement": "α, RIF/Gy (absolute RIF yield)", "setting": "MCF10A; 0.1 Gy X-rays, listed as ATM inhibition", "value": 25, "unit": "RIF/Gy"}, {"measurement": "T1/2_1 (RIF induction half-life)", "setting": "MCF10A; 0.4 Gy X-rays", "value": 5.9, "unit": "min"}, {"measurement": "α, RIF/Gy (absolute RIF yield)", "setting": "MCF10A; 0.4 Gy X-rays", "value": 25, "unit": "RIF/Gy"}, {"measurement": "T1/2_1 (RIF induction half-life)", "setting": "MCF10A; 1 Gy X-rays", "value": 4.2, "unit": "min"}, {"measurement": "α, RIF/Gy (absolute RIF yield)", "setting": "MCF10A; 1 Gy X-rays", "value": 19, "unit": "RIF/Gy"}, {"measurement": "T1/2_1 (RIF induction half-life)", "setting": "MCF10A; 2 Gy X-rays", "value": 2.6, "unit": "min"}, {"measurement": "α, RIF/Gy (absolute RIF yield)", "setting": "MCF10A; 2 Gy X-rays", "value": "12±2", "unit": "RIF/Gy"}, {"measurement": "α, RIF/Gy (absolute RIF yield)", "setting": "MCF10A; 2 Gy X-rays, listed as ATM inhibition", "value": 12, "unit": "RIF/Gy"}, {"measurement": "detection half-lives with versus without ATM inhibition", "setting": "MCF10A; across all doses", "value": "comparable"}, {"measurement": "reduction of α versus normal conditions", "setting": "MCF10A; after 0.1 Gy of X-rays", "value": 3, "unit": "fold"}, {"measurement": "reduction of α versus normal conditions", "setting": "MCF10A; after 2 Gy of X-rays", "value": "no significant reduction"}, {"measurement": "RIF resolution with versus without ATM inhibition", "setting": "MCF10A; at high doses", "value": "significantly slower"}, {"measurement": "drop of RIF yield between 0.1 and 2 Gy", "setting": "MCF10A; under ATM inhibition", "value": 2, "unit": "fold"}, {"measurement": "overall number of RIF", "setting": "MCF10A; under ATM inhibition versus normal media", "value": "largely diminished"}, {"measurement": "phosphorylated p53 at S15", "setting": "[1]", "value": "reduction"}]}
